“Also recorded” adds a separate entry of the source.
Experiments:
[1] = Dissolution of test compounds noted in the PAMPA-BBB assay (PBS:EtOH 70:30); type: physicochemical; design: key: *= poor dissolution
Description: (§1) To evaluate the brain penetration of the different compounds, a parallel artificial membrane permeation assay for blood-brain barrier was used, following the method described by Di et al. (cf. Table 2). The in vitro permeability (Pe) of fourteen commercial drugs through lipid extract of porcine brain membrane together with the test compounds were determined. Commercial drugs and assayed compounds were tested using a mixture of PBS:EtOH (70:30).

in vitro = conditions: pig, PAMPA
Description: as §1

[2] = predictive penetration in the CNS from PAMPA-BBB Pe
Description: as §1

I2-IR = assay: Competition binding against the selective I2-IR radioligand [3H]-2-BFI in membranes from post-mortem human frontal cortex; conditions: for [^3H]-2-BFI I2 binding affinity (pKi): membranes from post-mortem human frontal cortex, radioligand [3H]-2-BFI
SAMP8 mice = assay: Novel Object Recognition Test (NORT) in SAMP8 mice
Description: (§2) Mice were placed in a 90°, two-arm, 25-cm-long, 20-cm-high, 5-cm-wide black maze. The walls could be lifted off for easy cleaning. Light intensity in the middle of the field was 30 lux. The objects to be discriminated were made of plastic and were chosen not to frighten the mice, and objects with parts that could be bitten were avoided. Before performing the test, the mice were individually habituated to the apparatus for 10 min during 3 days. On day 4, the animals were submitted to a 10-min acquisition trial (first trial), during which they were placed in the maze in the presence of two identical, novel objects (A+A or B+B) at the end of each arm. A 10-min retention trial (second trial) was carried out 2 h later. During this second trial, objects A and B were placed in the maze and the behavior of the mice was recorded with a camera. Time that the mice explored the new object (TN) and Time that the mice explored the Old object (TO) were measured. A Discrimination Index (DI) was defined as (TN−TO)/(TN+TO). In order to avoid object preference biases, A and B were counterbalanced so that one half of the animals in each experimental group were exposed first to A and then to B, whereas the remaining half saw B first and then A. The maze and the objects were cleaned with 70° ethanol after each test in order to eliminate olfactory cues.

5XFAD mice = assay: Novel Object Recognition Test (NORT) in 5XFAD mice
Description: as §2

II-6 [3] = assay: Gene expression of inflammatory marker II-6 by real-time PCR in 5XFAD mice; conditions: 5×FAD
Description: (§3) Total RNA isolation was carried out by means of Trizol reagent following manufacturer's instructions. […] Samples were also tested in an Agilent 2100B Bioanalyzer (Agilent Technologies) to determine the RNA integrity number. Reverse Transcription-Polymerase Chain Reaction (RT-PCR) was performed as follows: 2 μg of messenger RNA (mRNA) was reverse-transcribed using the High Capacity complementary DNA (cDNA) Reverse Transcription Kit (Applied Biosystems). Normalization of expression levels was performed with actin. SYBER Green, real-time PCR was performed in the Step One Plus Detection System (Applied Biosystems) employing the SYBR Green PCR Master Mix. Each reaction mixture contained 7.5 μL of cDNA, whose concentration was 2 μg, 0.75 μL of each primer (whose concentration was 100 nM), and 7.5 μL of SYBR Green PCR Master Mix (2×). Data were analyzed utilizing the comparative Cycle threshold (Ct) method (Fold Change), where the actin transcript level was used to normalize differences in sample loading and preparation. Each sample (n=4-5) was analyzed in triplicate, and results represented the n-fold difference of transcript levels among different samples.

II-6 [4] = assay: Gene expression of inflammatory marker II-6 by real-time PCR in SAMP8 mice
Description: as §3

Cxcl10 [5] = assay: Gene expression of inflammatory marker Cxcl10 by real-time PCR in 5XFAD mice; conditions: 5×FAD
Description: as §3

Cxcl10 [6] = assay: Gene expression of inflammatory marker Cxcl10 by real-time PCR in SAMP8 mice
Description: as §3

CCOP(=O)(OCC)[C@]1(c2ccccc2)N=C[C@H]2C(=O)N(Cc3ccccc3)C(=O)[C@H]21 (racemic) [Compound I-29, Diethyl (1RS,3aSR,6aSR)-5-benzyl-4,6-dioxo-1-phenyl-1,3a,4,5,6,6a-hexahydropyrrolo[3,4-c]pyrrole-1-phosphonate]
dissolution [1]: I-29*
Papp (in vitro): > 30 ×10⁻⁶ cm/s
CNS Prediction [2]: CNS+ (compounds of high BBB permeation (CNS+): Pe (10^−6 cm s^−1)>5,179)
[^3H]-2-BFI I2 binding affinity (pKi) (I2-IR): 5.26 ± 0.22

CCOP(=O)(OCC)[C@]1(c2ccccc2)N=C[C@H]2C(=O)N(c3cccc(Cl)c3)C(=O)[C@H]21 (racemic) [Compound I-53, Diethyl (1RS,3aSR,6aSR)-5-(3-chlorophenyl)-4,6-dioxo-1-phenyl-1,3a,4,5,6,6a-hexahydropyrrolo[3,4-c]pyrrole-1-phosphonate]
dissolution [1]: I-53*
Papp (in vitro): 3.7 ± 0.1 ×10⁻⁶ cm/s
CNS Prediction [2]: CNS+/− (compounds of uncertain BBB permeation (CNS+/−): 5,179>Pe (10^−6 cm s^−1)>2,083)

CCOP(=O)(OCC)[C@]1(c2ccccc2)N=C[C@H]2C(=O)N(c3ccc(Br)cc3)C(=O)[C@H]21 (racemic) [Compound I-47, Diethyl (1RS,3aSR,6aSR)-5-(4-bromophenyl)-4,6-dioxo-1-phenyl-1,3a,4,5,6,6a-hexahydropyrrolo[3,4-c]pyrrole-1-phosphonate]
dissolution [1]: I-47*
Papp (in vitro): 4.4 ± 0.4 ×10⁻⁶ cm/s
CNS Prediction [2]: CNS+/− (compounds of uncertain BBB permeation (CNS+/−): 5,179>Pe (10^−6 cm s^−1)>2,083)

CCOP(=O)(OCC)[C@]1(c2ccccc2)N=C[C@H]2C(=O)N(c3ccc(F)c(Cl)c3)C(=O)[C@H]21 (racemic) [Compound I-06, Diethyl (1RS,3aSR,6aSR)-5-(3-chloro-4-fluorophenyl)-4,6-dioxo-1-phenyl-1,3a,4,5,6,6a-hexahydropyrrolo[3,4-c]pyrrole-1-phosphonate]
cognitive / memory effect in NORT (in words) (SAMP8 mice; SAMP8 mice, treated group compared to the control): reduced memory deficits; also recorded: improves cognitive abilities
DI (−1, 1) NORT 2 h (SAMP8 mice; female SAMP8 mice at 12 months, 5 mg/kg, retention 2 h, mean ± SEM): 0.33 ± 0.071
DI (−1, 1) NORT 24 h (SAMP8 mice; female SAMP8 mice at 12 months, 5 mg/kg, retention 24 h): 0.273 ± 0.042
cognitive / memory effect in NORT (in words) (5XFAD mice; 5XFAD mice, treated group compared to the control): recovered DI levels of the Wild Type (Wt) control group; also recorded: improves cognitive abilities
DI (−1, 1) NORT 2 h (5XFAD mice; female 5XFAD mice at 6 months, 5 mg/kg, retention 2 h): 0.199 ± 0.053
DI (−1, 1) NORT 24 h (5XFAD mice; female 5XFAD mice at 6 months, 5 mg/kg, retention 24 h): 0.229 ± 0.051
II-6 marker of neuroinflammation, gene expression in brain (in words) (II-6 [3]): reduced
Papp (in vitro): 9.7 ± 0.7 ×10⁻⁶ cm/s
CNS Prediction [2]: CNS+ (compounds of high BBB permeation (CNS+): Pe (10^−6 cm s^−1)>5,179)
II-6 marker of neuroinflammation, gene expression in brain (in words) (II-6 [4]): reduced
Cxcl10 marker of neuroinflammation, gene expression in brain (in words) (Cxcl10 [5]): reduced
Cxcl10 marker of neuroinflammation, gene expression in brain (in words) (Cxcl10 [6]): reduced

CCOP(=O)(OCC)[C@]1(c2ccccc2)N=C[C@H]2C(=O)N(c3cc([N+](=O)[O-])ccc3C)C(=O)[C@H]21 (racemic) [Compound I-50, Diethyl (1RS,3aSR,6aSR)-5-(2-methyl-5-nitrophenyl)-4,6-dioxo-1-phenyl-1,3a,4,5,6,6a-hexahydropyrrolo[3,4-c]pyrrole-1-phosphonate]
dissolution [1]: I-50*
Papp (in vitro): 1.4 ± 0.04 ×10⁻⁶ cm/s
CNS Prediction [2]: CNS− (compounds of low BBB permeation (CNS−): Pe (10^−6 cm s^−1)<2,083)

CCOP(=O)(OCC)[C@]1(C)N=C[C@H]2C(=O)N(C)C(=O)[C@H]21 (racemic) [Compound I-25, Diethyl (1RS,3aRS,6aRS)-1,5-dimethyl-4,6-dioxo-1,3a,4,5,6,6a-hexahydropyrrolo[3,4-c]pyrrole-1-phosphonate]
Papp (in vitro): 4.6 ± 0.7 ×10⁻⁶ cm/s
CNS Prediction [2]: CNS+/− (compounds of uncertain BBB permeation (CNS+/−): 5,179>Pe (10^−6 cm s^−1)>2,083)
Selectivity I2/α2 (I2-IR; antilogarithm of the difference between pKi for I2-IR and pKi for α2-AR): 19
[^3H]-2-BFI I2 binding affinity (pKi) (I2-IR): 8.57 ± 0.39

CCOP(=O)(OCC)[C@]1(c2ccccc2)N=C[C@H]2C(=O)N(c3cccc([N+](=O)[O-])c3)C(=O)[C@H]21 (racemic) [Compound I-28, Diethyl (1RS,3aSR,6aSR)-5-(3-nitrophenyl)-4,6-dioxo-1-phenyl-1,3a,4,5,6,6a-hexahydropyrrolo[3,4-c]pyrrole-1-phosphonate]
dissolution [1]: I-28*
Papp (in vitro): 4.5 ± 0.25 ×10⁻⁶ cm/s
CNS Prediction [2]: CNS+/− (compounds of uncertain BBB permeation (CNS+/−): 5,179>Pe (10^−6 cm s^−1)>2,083)
[^3H]-2-BFI I2 binding affinity (pKi) (I2-IR): 6.81 ± 0.27

O=C1[C@@H]2[C@@H](C=N[C@@]2(c2ccccc2)P(=O)(Oc2ccccc2)Oc2ccccc2)C(=O)N1c1ccccc1 (racemic) [Compound I-26, Diphenyl (1RS,3aSR,6aSR)-4,6-dioxo-1,5-diphenyl-1,3a,4,5,6,6a-hexahydropyrrolo[3,4-c]pyrrole-1-phosphonate]
dissolution [1]: I-26*
Papp (in vitro): 2.3 ± 0.04 ×10⁻⁶ cm/s
CNS Prediction [2]: CNS+/− (compounds of uncertain BBB permeation (CNS+/−): 5,179>Pe (10^−6 cm s^−1)>2,083)
[^3H]-2-BFI I2 binding affinity (pKi) (I2-IR): 5.86 ± 1.22

— US20220064195A1, “SYNTHETIC I2 IMIDAZOLINE RECEPTOR LIGANDS FOR PREVENTION OR TREATMENT OF HUMAN BRAIN DISORDERS” (Universitat de Barcelona, priority 2018, published 2022)
